The source made the active and inactive calls. The calls are words filed in the database; no cut-off is given here.
Tests used:
[1] = system: Streptomyces acidiscabies; assay: Antimicrobial activity against Streptomyces acidiscabies ATCC 4900315 assessed as inhibition of aerial mycelial growth at 0.4 ug/disk after 5 days by paper disk method; type: functional; settings: for zone of inhibition at 0.4 µg/disc: ATCC 4900315, 120 h, read-out: DIZ
Streptomyces scabiei [2] = assay: Antimicrobial activity against Streptomyces scabiei ATCC 4917314 assessed as inhibition of aerial mycelial growth at 0.40 ug/disk after 5 days by paper disk method; type: functional; settings: for zone of inhibition at 0.4 µg/disc: ATCC 4917314, 120 h, read-out: DIZ
Streptomyces alboniger [3] = assay: Antimicrobial activity against Streptomyces alboniger IFO 12738 assessed as inhibition of aerial mycelial growth at 0.04 ug/disk after 5 days by paper disk method; type: functional, organism-based
Streptomyces alboniger [4] = assay: Antimicrobial activity against Streptomyces alboniger IFO 12738 assessed as inhibition of aerial mycelial growth at 4 ug/disk after 5 days by paper disk method; type: functional
[5] = system: Streptomyces acidiscabies; assay: Antimicrobial activity against Streptomyces acidiscabies ATCC 4900315 assessed as inhibition of aerial mycelial growth at 4 ug/disk after 5 days by paper disk method; type: functional; settings: for zone of inhibition at 4 µg/disc: ATCC 4900315, 120 h, read-out: DIZ
Streptomyces scabiei [6] = assay: Growth stimulation of Streptomyces scabiei ATCC 4917314 at 4 ug/disk after 5 days by paper disk method; type: functional
[7] = system: Streptomyces acidiscabies; assay: Antimicrobial activity against Streptomyces acidiscabies ATCC 4900315 assessed as inhibition of aerial mycelial growth at 0.04 ug/disk after 5 days by paper disk method; type: functional
Streptomyces scabiei [8] = assay: Antimicrobial activity against Streptomyces scabiei ATCC 4917314 assessed as inhibition of aerial mycelial growth at 0.04 ug/disk after 5 days by paper disk method; type: functional; settings: for zone of inhibition at 0.04 µg/disc: ATCC 4917314, 120 h, read-out: DIZ
Streptomyces alboniger [9] = assay: Antimicrobial activity against Streptomyces alboniger IFO 12738 assessed as inhibition of aerial mycelial growth at 0.4 ug/disk after 5 days by paper disk method; type: functional
Streptomyces scabiei [10] = assay: Antimicrobial activity against Streptomyces scabiei ATCC 4917314 assessed as inhibition of aerial mycelial growth at 4 ug/disk after 5 days by paper disk method; type: functional; settings: for zone of inhibition at 4 µg/disc: ATCC 4917314, 120 h, read-out: DIZ
Streptomyces scabiei [11] = assay: Reduction in concanamycins A and B production in Streptomyces scabiei ATCC 4917314 at 1.2 ug/ml after 5 days relative to untreated control; type: functional; parameters: scale not given: the % may be the effect or the level left
[12] = system: Streptomyces acidiscabies; assay: Antimicrobial activity against Streptomyces acidiscabies ATCC 4900315 assessed as inhibition of growth at 4 ug/disk after 5 days by paper disk method; type: functional; settings: ATCC 4900315, 120 h, read-out: DIZ
[13] = system: Streptomyces acidiscabies; assay: Reduction in concanamycins A and B production in Streptomyces acidiscabies ATCC 4900315 at 1.5 ug/ml after 5 days relative to untreated control; type: functional, organism-based
Streptomyces scabiei [14] = assay: Reduction in thaxtomin A production in Streptomyces scabiei ATCC 4917314 at 1.2 ug/ml after 5 days relative to untreated control; type: functional; parameters: scale not given: the % may be the effect or the level left
[15] = system: Streptomyces acidiscabies; assay: Reduction in thaxtomin A production in Streptomyces acidiscabies ATCC 4900315 at 1.5 ug/ml after 5 days relative to untreated control; type: functional; parameters: scale not given: the % may be the effect or the level left
Streptomyces scabiei [16] = assay: Antimicrobial activity against Streptomyces scabiei ATCC 4917314 assessed as mycelial weigh change at 1.2 ug/ml after 5 days relative to untreated control; type: functional
[17] = system: Streptomyces acidiscabies; assay: Antimicrobial activity against Streptomyces acidiscabies ATCC 4900315 assessed as mycelial weigh change at 1.5 ug/ml after 5 days relative to untreated control; type: functional
Streptomyces scabiei [18] = assay: Antimicrobial activity against Streptomyces scabiei ATCC 4917314 assessed as inhibition of growth at 4 ug/disk after 5 days by paper disk method; type: functional; settings: ATCC 4917314, 120 h, read-out: DIZ
Streptomyces scabiei [19] = assay: Growth stimulation of Streptomyces scabiei ATCC 4917314 at 0.4 ug/disk after 5 days by paper disk method; type: functional; settings: ATCC 4917314, 120 h, read-out: DIZ
[20] = system: Streptomyces acidiscabies; assay: Antimicrobial activity against Streptomyces acidiscabies ATCC 4900315 assessed as inhibition of growth at 0.4 ug/disk after 5 days by paper disk method; type: functional; settings: ATCC 4900315, 120 h, read-out: DIZ
Streptomyces alboniger [21] = assay: Antimicrobial activity against Streptomyces alboniger IFO 12738 assessed as inhibition of growth at 4 ug/disk after 5 days by paper disk method; type: functional; settings: IFO 12738, 120 h, read-out: DIZ
Streptomyces scabiei [22] = assay: Antimicrobial activity against Streptomyces scabiei ATCC 4917314 assessed as inhibition of growth at 0.4 ug/disk after 5 days by paper disk method; type: functional
[23] = system: Streptomyces acidiscabies; assay: Antimicrobial activity against Streptomyces acidiscabies ATCC 4900315 assessed as mycelial weigh change at 0.45 ug/ml after 5 days relative to untreated control; type: functional
Streptomyces scabiei [24] = assay: Reduction in concanamycins A and B production in Streptomyces scabiei ATCC 4917314 at 3.6 ug/ml after 5 days relative to untreated control; type: functional; parameters: scale not given: the % may be the effect or the level left
Streptomyces scabiei [25] = assay: Reduction in thaxtomin A production in Streptomyces scabiei ATCC 4917314 at 3.6 ug/ml after 5 days relative to untreated control; type: functional; parameters: scale not given: the % may be the effect or the level left
Streptomyces scabiei [26] = assay: Antimicrobial activity against Streptomyces scabiei ATCC 4917314 assessed as mycelial weigh change at 3.6 ug/ml after 5 days relative to untreated control; type: functional
[27] = system: Streptomyces acidiscabies; assay: Reduction in concanamycins A and B production in Streptomyces acidiscabies ATCC 4900315 at 0.45 ug/ml after 5 days relative to untreated control; type: functional, organism-based
[28] = system: Streptomyces acidiscabies; assay: Reduction in thaxtomin A production in Streptomyces acidiscabies ATCC 4900315 at 0.45 ug/ml after 5 days relative to untreated control; type: functional; parameters: scale not given: the % may be the effect or the level left

SMILES | diameter of the inhibition zone (DIZ) [1] | diameter of the inhibition zone (DIZ) (Streptomyces scabiei [2]) | diameter of the inhibition zone (DIZ) (Streptomyces alboniger [3]) | diameter of the inhibition zone (DIZ) (Streptomyces alboniger [4]) | zone of inhibition at 4 µg/disc [5] [mm] | diameter of the inhibition zone (DIZ) [7] | diameter of the inhibition zone (DIZ) (Streptomyces scabiei [8]) | diameter of the inhibition zone (DIZ) (Streptomyces alboniger [9]) | diameter of the inhibition zone (DIZ) (Streptomyces scabiei [10]) | zone of inhibition at 0.4 µg/disc [1] [mm] | zone of inhibition at 0.4 µg/disc (Streptomyces scabiei [2]) [mm] | zone of inhibition at 4 µg/disc [12] [mm] | zone of inhibition at 0.04 µg/disc (Streptomyces scabiei [8]) [mm] | zone of inhibition at 4 µg/disc (Streptomyces scabiei [10]) [mm] | zone of inhibition at 4 µg/disc (Streptomyces scabiei [18]) [mm] | diameter of the inhibition zone (DIZ) [5] | further results
CO/N=C(\C(=O)N[C@@H]1C(=O)N2C(C(=O)O)=C(COC(C)=O)CS[C@H]12)c1csc(N)n1 [CEFOTAXIME] | inactive | inactive | inactive | inactive | 15 | inactive | inactive | inactive | inactive | – | – | – | – | – | – | – | zone of inhibition at 4 µg/disc (Streptomyces scabiei [6]; Streptomyces scabiei, ATCC 4917314, 120 h, read-out: DIZ): 22 mm
CN(C)[C@@H]1C(O)=C(C(N)=O)C(=O)[C@@]2(O)C(O)=C3C(=O)c4c(O)ccc(Cl)c4[C@@](C)(O)[C@H]3C[C@@H]12 [CHLORTETRACYCLINE] | – | – | inactive | inactive | 35 | – | – | inactive | – | 19 | 20 | 16 | 11 | 27 | 19 | – | Activity (Streptomyces scabiei [11]): 0.1%; Activity [13]: Below limit of detection; zone of inhibition at 0.04 µg/disc ([7]; ATCC 4900315, 120 h, read-out: DIZ): 11 mm; Activity (Streptomyces scabiei [14]): 0.6%; Activity [15]: <10%; Activity (Streptomyces scabiei [16]): 2.1%; Activity [17]: 6.8%
N[C@@H]1CONC1=O [CYCLOSERINE] | inactive | inactive | inactive | inactive | – | inactive | inactive | inactive | inactive | – | – | – | – | – | – | inactive | Activity (Streptomyces scabiei [6]): 44 mm; zone of inhibition at 0.4 µg/disc (Streptomyces scabiei [19]): 24 mm
NC[C@H]1O[C@H](O[C@H]2[C@H](O)[C@@H](O[C@H]3O[C@H](CO)[C@@H](O)[C@H](N)[C@H]3O)[C@H](N)C[C@@H]2N)[C@H](O)[C@@H](O)[C@@H]1O [KANAMYCIN] | inactive | – | inactive | inactive | – | inactive | inactive | inactive | – | – | 10 | 18 | – | 18 | 13 | inactive | zone of inhibition at 0.4 µg/disc [20]: 12 mm; zone of inhibition at 4 µg/disc (Streptomyces alboniger [21]): 14 mm
CN[C@@H]1[C@H](O)[C@H](NC)[C@H]2O[C@@]3(O)C(=O)C[C@@H](C)O[C@H]3O[C@@H]2[C@H]1O [SPECTINOMYCIN] | – | – | inactive | – | 31 | inactive | – | inactive | – | 20 | 11 | – | 27 | 19 | – | – | diameter of the inhibition zone (DIZ) (Streptomyces scabiei [22]): inactive; zone of inhibition at 4 µg/disc (Streptomyces alboniger [4]; IFO 12738, 120 h, read-out: DIZ): 35 mm; Activity [23]: 8.31%; Activity (Streptomyces scabiei [24]): 1.1%; Activity (Streptomyces scabiei [25]): 0.8%; Activity (Streptomyces scabiei [26]): 5.01%; Activity [27]: Below limit of detection; Activity [28]: 59%

— ChEMBL document CHEMBL3044676, “Effect of Antibiotics on Formation of Aerial Mycelium and Production of Phytotoxins in Streptomyces spp” (2003)
